Reference: patent US7098372B1, “Pharmaceutical compositions and methods of using secreted frizzled related protein” (Wyeth, priority 1999, dated 2006)

How the values were obtained:
hOB SFRP mRNA [1] = test: hOB SFRP mRNA levels after treatment with various agents (method not given); type: cell-based, human; settings: various hOB cell lines
hOB SFRP mRNA [2] = test: Northern blot analysis of hOB SFRP mRNA expression; type: cell-based, human
Excerpt: The hOB SFRP gene fragment was identified using RADE (rapid analysis of differential expression) technology as described by Shiue 1997 Drug Develop. Res. 41: 142–159, the whole of which is incorporated herein. Three hOB cell lines (hOB-03-C5, hOB-03-CE6 and hOB-01-C1), representing three distinct stages of differentiation (proliferative, mature and preosteocytic, respectively) were used to isolate and identify SFRP. The hOB cell lines were established and cultured as previously described (Bodine et al. 1996 J. Bone Miner. Res. 11: 806–819; Bodine et al. 1996 Endocrinology 137: 4592–4604; Bodine et al. 1997 J. Cell. Biochem. 65: 368–387). […] However, in contrast to osteosarcoma cells (Stein and Lian 1993 Endocrine Rev. 14: 424–442), the hOB cell lines were faithful to the proliferation/differentiation relationship at the nonpermissive temperature (>37° C.) when the T-antigen mutant is inactivated. The cell lines were seeded into 150 mm dishes at ˜40,000 cells/cm^2 with growth medium [D-MEM/F-12 containing 10% (v/v) heat-inactivated fetal bovine serum (FBS), 1% (v/v) Penicillin-Streptomycin and 2 mM GlutaMAX-1] and incubated overnight at 34° C. The next day, the medium was removed, the cells were rinsed with phosphate-buffered saline (PBS), 20 ml of serum-free medium was added to the dishes [phenol red-free D-MEM/F-12 (Gibco/BRL) containing 0.25% (w/v) bovine serum albumin (BSA, Pentex crystallized, Bayer), 1% (v/v) Penicillin-Streptomycin, 2 mM GlutaMAX-1, […] ascorbate-2-phosphate (Wako), and 10 nM menadione sodium bisulfite (vitamin K3)], and the dishes were incubated at 39° C. for 24 hr. The next day, the medium was removed and the cells were treated at 39° C. for an additional 24 hr with 20 ml of fresh serum-free medium containing either vehicle (Control), 8 nM human parathyroid hormone 1–34 (PTH), 100 nM prostaglandin E2 (PGE2) or 0.1 nM human transforming growth factor-β1 (TGF-β1). PTH, PGE2 and TGF-β1 are known osteogenic agents (Whitfield and Morley 1995 Trends Pharmaceut. Sci. 16:382–386; Jee and Ma 1997 Bone 21:297–304; Centrella et al. 1994 Endocrine Rev. 15:27–39). After the treatment period, the dishes were rinsed with PBS and total cellular RNA was isolated from the nontreated and treated cells using TRIzol according to the manufacturers instructions (GibcoBRL). RADE was then performed with the isolated RNA samples as above; the regulated gene fragments were identified, cloned and sequenced. These experiments identified a total of 82 differentially expressed genes. A BLAST (basic local alignment search tool) search of the public data bases was performed on the RADE-obtained gene fragments; one of the gene fragments was highly homologous to mouse SFRP-1. This gene fragment was identified during RADE using the following primer pair: 5′-[…]-3′ (HT11A)3′ end (reverse primer) and 5′-[…]-3′ (H-AP1) 5′ end (forward primer), which sequences are SEQ ID NO 11 and SEQ ID NO 12, respectively. The expression and regulation of the gene fragment having homology to mouse cDNA SFRP-1 was confirmed by Northern blot analysis.
In order to confirm the regulation of hOB SFRP gene expression by different osteogenic agents (i.e., the DNA fragment identified in Example 1, above), the hOB cell lines were treated with PTH, PGE2, and TGF-β1; RNA was then isolated for Northern hybridizations. The experiments were performed as follows. The hOB cell lines were seeded into 150 mm dishes and treated as described in Example 1, except that polyA+ RNA was isolated from total cellular RNA using Oligotex mRNA maxi kits as described by the manufacturer (Qiagen). Northern blot analysis was performed using either the excised RADE hOB SFRP gene fragment, the cloned hOB SFRP gene fragment or the cloned full-length hOB SFRP cDNA as a ^32P-labeled probe (as described in Bodine et al. 1996 J. Bone Miner. Res. 11: 806–819, which is incorporated herein). Each of these probes detected a 4.4–4.6 kb message in the hOB cells. […]

PTH-1 receptor = target: T1, PTH-1 receptor (Homo sapiens, UniProt Q03431); test: Intracellular cAMP assay in hOB-01-C1-PS-09 cells; type: cell-based; settings: preincubation at 34° C.
T1 construct: the hOB-01-C1-PS-09 cell line was selected for further characterization based on its high-level of PTH-1 receptor mRNA expression; endogenous in cells; host or cells: hOB-01-C1-PS-09 cells (ATCC PTA-785)
T1 sequence (Q03431 27-593): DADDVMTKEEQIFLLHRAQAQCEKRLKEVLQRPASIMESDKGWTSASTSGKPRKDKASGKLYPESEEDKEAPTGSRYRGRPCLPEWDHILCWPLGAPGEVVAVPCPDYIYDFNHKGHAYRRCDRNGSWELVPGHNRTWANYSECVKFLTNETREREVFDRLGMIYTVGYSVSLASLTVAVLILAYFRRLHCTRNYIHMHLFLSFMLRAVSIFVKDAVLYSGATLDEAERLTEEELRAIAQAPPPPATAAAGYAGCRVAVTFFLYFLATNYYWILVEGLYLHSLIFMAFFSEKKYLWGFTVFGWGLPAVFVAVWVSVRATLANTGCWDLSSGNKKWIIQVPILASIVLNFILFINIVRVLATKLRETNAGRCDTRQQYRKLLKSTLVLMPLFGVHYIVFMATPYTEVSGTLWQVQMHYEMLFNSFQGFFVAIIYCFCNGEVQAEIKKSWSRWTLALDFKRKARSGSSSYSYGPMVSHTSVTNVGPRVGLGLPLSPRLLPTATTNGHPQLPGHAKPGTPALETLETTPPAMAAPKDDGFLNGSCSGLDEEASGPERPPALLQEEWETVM
Procedure: As mentioned above, the hOB-01-C1-PS-09 cell line was selected for further characterization based on its high-level of PTH-1 receptor mRNA expression. […] Consistent with this enhanced PTH-1 receptor expression, […] increasing concentrations of human PTH 1–34 (hPTH 1–34) for 10 min at 37° C. generates a dose-dependent 5- to 6-fold increase in intracellular cyclic-adenosine monophosphate (cAMP) levels (FIG. 24). […] Thus, both PTH-1 receptor expression and responsiveness are enhanced following inactivation of the tsA-209 T-antigen. One potential utility for this cAMP assay would be the ability to characterize the activities of PTH-analogs or -mimetics in an important target cell under conditions where levels of PTH-1 receptor expression are dramatically altered.

hOB-01-C1-PS-09 cells = test: Cell viability of hOB-01-C1-PS-09 cells stably transfected with hOB SFRP cDNA; type: cell-based, human; settings: stably transfected hOB-01-C1-PS-09 cells
Excerpt: For these experiments, the cells were stably transfected with either an hOB SFRP cDNA (i.e., SFRP-1/FRP-1/SARP-2) mammalian expression plasmid or the empty vector (i.e., pcDNA3.1). The results are presented as the % of the day 0 control cells.
For these experiments, the cells were stably transfected with either an hOB SFRP cDNA (i.e., SFRP-1/FRP-1/SARP-2) mammalian expression plasmid or the empty vector (i.e., pcDNA3.1, which is obtained from Invitrogen of Carlsbad, Calif.). Standard cloning technigues were used (See Ausubel et al. 1997 Short Protocols in M<olecular Biology, 3rd edition, Wiley {New York}). The results are presented as the % of the day 0 control cells.

Wnt signaling = test: TCF-luciferase reporter gene assay of Wnt signaling; type: cell-based, human; settings: transfected cDNA, hOB-01-C1-PS-09 or hOB-02-C1-PS-02 cells
Procedure: SARP-2 or human Frzb-1 expression plasmids downregulates Wnt signaling (when compared to the pcDNA3.1 empty vector control) in the hOB cells as measured by the TCF-luciferase reporter gene assay. This assay is an authentic measurement of Wnt signaling and β-catenin nuclear activity.
In order to determine if the up-regulation of SFRP-1/FRP-1/SARP-2 gene expression results in an antagonism of the Wnt signaling pathway, hOB-03-CE6 cells were treated with PGE2 and the resulting cells probed with β-catenin monoclonal antibody. Overexpression of Wnt proteins in cells up-regulates a signaling protein known as β-catenin (reviewed in Moon et al. 1997 Cell 88: 725–728; Barth et al. 1997 Curr. Opin. Cell Biol. 9: 683–690; and Nusse 1997 Cell 89: 321–323). […] Therefore, hOB-03-CE6 cells were plated and treated with PGE2 as described in Example 1, except that total cellular protein was extracted and a Western blot analysis for β-catenin was performed using a monoclonal antibody to the protein (Transduction Laboratories) as previously described (Bodine et al. 1996 Endocrinology 137: 4592–4604; Melkonyan et al. 1997 Proc. Natl. Acad. Sci. USA 94: 13636–13641). […] Both human and rat SFRP-1/FRP-1/SARP-2, as well as human Frzb-1/FrzB/Fritz, suppressed TCF-luciferase activity in the hOB cells.

## human parathyroid hormone 1–34 [PTH]
hOB SFRP mRNA [1]
  effect on hOB SFRP message expression: suppresses
hOB SFRP mRNA [2]; SaOS-2 human osteosarcoma cells, 24 hr, 37° C.
  regulation of SFRP mRNA: not regulated
hOB SFRP mRNA [2]; hOB-01-C1 cells, 8 nM
  suppression of basal hOB SFRP expression: 35%
PTH-1 receptor
  increase in cAMP concentrations: does not result in a subsequent increase

B1: SFRP-1/FRP-1/SARP-2: human osteoblast secreted frizzled related protein, SEQ ID NO 2, expressed from transfected cDNA in pcDNA3.1 (protein, listed as Homo sapiens)
chain: MGIGRSEGGRRGAALGVLLALGAALLAVGSASEYDYVSFQSDIGPYQSGRFYTKPPQCVDIPADLRLCHNVGYKKMVLPNLLEHETMAEVKQQASSWVPLLNKNCHAGTQVFLCSLFAPVCLDRPIYPCRWLCEAVRDSCEPVMQFFGFYWPEMLKCDKFPEGDVCIAMTPPNATEASKPQGTTVCPPCDNELKSEAIIEHLCASEFALRMKIKEVKKENGDKKIVPKKKKPLKLGPIKKKDLKKLVLYLKNGADCPCHQLDNLSHHFLIMGRKVKSQYLLTAIHKWDKKNKEFKNFMKKMKNHECPTFQSVFK
hOB-01-C1-PS-09 cells
  rate of cell death on overexpression versus empty vector: accelerates the rate of cell death
Wnt signaling
  TCF-luciferase activity: suppressed
